# Test results reported in US20110237497A1, “COMPOSITIONS OF A V-ATPASE INHIBITOR IN COMBINATION WITH A GLUCOCORTICOID RECEPTOR LIGAND AND METHODS OF USE” (priority 2009, published 2011).
# Test system: GR
# Assay: GR transactivation, MMTV (pHHLuc) luciferase reporter in AD293 cells
# Assay type: cell-based
# Details: Dexamethasone 1 nM, 10 nM, 100 nM and 1 μM with or without Concanamycin A 1 nM, FIG. 2
# Protocol: (§1) AD293 cells in 24 wells plate were transfected with 0.1 ng GR, 100 ng pHHLuc reporter together with 10 ng Renilla control plasmids in each well, then induced by EtOH (vehicle control), Dexamethasone (1 nM, 10 nM, 100 nM and 1 μM), with or without Bafilomycin A1 (100 nM). Dual-Luciferase values were measured by Promega standard manual.
# as §1, with “Concanamycin A (1” for “Bafilomycin A1 (100”
# FIG. 8 is a graph showing a summary of V-ATPase inhibitors in enhancing GR-Dex activity on MMTV (pHHLuc) reporter in AD293 cells. AD293 cells in 24 wells plate were transfected with 0.1 ng GR, 100 ng pHHLuc reporter together with 10 ng Renilla control plasmids in each well, then induce by EtOH (vehicle control), Dexamethasone (10 nM), with different V-ATPase inhibitors (Bafilomycin A1 100 nM; Concanamycin A 1 nM; Lobatamide A 100 nM) or vehicle control. Dual-Luciferase values were measured by Promega standard manual.
compound,measurement,value
"C/C=C/C1OC(O)(C(C)C(O)C(C)C2OC(=O)/C(OC)=C/C(C)=C/C(C)C(O)C(CC)C(O)C(C)C/C(C)=C/C=C/C2OC)CC(OC2CC(O)C(OC(N)=O)C(C)O2)C1C (stereo not shown) [Concanamycin A, 6-(2-(4-((4E,6E,14E,16Z)-11-ethyl-10,12-dihydroxy-3,17-dimethoxy-7,9,13,15-tetramethyl-18-oxooxacyclooctadeca-4,6,14,16-tetraen-2-yl)-3-hydroxypentan-2-yl)-2-hydroxy-5-methyl-6-((E)-prop-1-enyl)tetrahydro-2H-pyran-4-yloxy)-4-hydroxy-2-methyltetrahydro-2H-pyran-3-yl carbamate]",GR-dex dose-response of induction on MMTV (pHHLuc) reporter (GR transactivation),synergizes with Dex
